“And” between values parts separate entries of the source, which are not always exact repeats. Equal entries are not always repeated.
How the values were obtained:
[1] = Comparison of exposure of released alvocidib to parent prodrug exposure; type: in vivo; details: expressed as a percentage of the released alvocidib exposure
Experimental: Representative prodrug compounds (i.e., Compounds 10, 21-28 and 29-31) were tested to determine the resultant exposure of released alvocidib as well exposure of the parent compound. The exposure of the parent prodrug is expressed as a percentage of the released alvocidib exposure (% F). The released alvocidib exposure (% F) for each prodrug was calculated as a percentage of the exposure of alvocidib, dosed orally at an equivalent dose.

[2] = Pharmacokinetic testing of representative compounds in CD-1 mice, oral dosing; type: in vivo; details: mean ± SD; for AUC0→∞, analyte: prodrug compound / AUCLast, analyte: prodrug compound / half-life / Tmax: dosed orally 10 mg/kg, analyte = dosed prodrug, nd = none detected; for half-life / Tmax: mouse, in vivo, po; for half-life: read-out: Half Life, analyte: prodrug compound (converted); for Tmax: read-out: Tmax, analyte: prodrug compound
Experimental: Representative compounds were tested for pharmacokinetic activity in CD-1 mice. Mice were dosed orally with 10 mg/kg of each representative compound as well as alvocidib.
The results in Table 3 show the tested compounds afforded high exposure of released alvocidib and no apparent exposure of the prodrug compounds. Additional results are shown in Tables 4 and 5, including use of alvocidib.HCl as a control: […]

[3] = labelled compound dosed orally 10 mg/kg, analyte = alvocidib (released from prodrug, or alvocidib.HCl control), hydrochloride, 10 mg/kg

| exposure of the parent prodrug [1] | AUC0→∞, analyte: prodrug compound [2] | AUCLast, analyte: prodrug compound [2] | half-life [2] | Tmax [2] | SMILES | further results |
| --- | --- | --- | --- | --- | --- | --- |
| 3% | – | – | – | – | CC(C)C(=O)O[C@@H]1CN(C)CC[C@@H]1c1c(O)cc(O)c2c(=O)cc(-c3ccccc3Cl)oc12 [Compound 22, (3S, 4R)-4-(2-(2-chlorophenyl)-5,7-dihydroxy-4-oxo-4H-chromen-8-yl)-1-methylpiperidin-3-yl isobutyrate] | – |
| – | 275.1 ± 24.1 ng · h/mL or ng · h/G | 238.3 ± 43.9 ng · h/mL or ng · h/G | 4.2 ± 0.1 h | 0.25 h | COC(=O)O[C@@H]1CN(C)CC[C@@H]1c1c(O)cc(O)c2c(=O)cc(-c3ccccc3Cl)oc12 [Compound 11, (3S, 4R)-4-(2-(2-chlorophenyl)-5,7-dihydroxy-4-oxo-4H-chromen-8-yl)-1-methylpiperidin-3-yl methyl carbonate] | – |
| low exposure | – | – | – | – | C[C@H](N)C(=O)O[C@@H]1CN(C)CC[C@@H]1c1c(O)cc(O)c2c(=O)cc(-c3ccccc3Cl)oc12 [Compound 27, (3S, 4R)-4-(2-(2-chlorophenyl)-5,7-dihydroxy-4-oxo-4H-chromen-8-yl)-1-methylpiperidin-3-yl L-alaninate] | – |

Continued, compound first:

| SMILES | exposure of the parent prodrug [1] | AUC0→∞, analyte: prodrug compound [2] | AUCLast, analyte: prodrug compound [2] | half-life [2] | Tmax [2] | further results |
| --- | --- | --- | --- | --- | --- | --- |
| CCOC(=O)O[C@@H]1CN(C)CC[C@@H]1c1c(O)cc(O)c2c(=O)cc(-c3ccccc3Cl)oc12 [Compound 10, (3S, 4R)-4-(2-(2-chlorophenyl)-5,7-dihydroxy-4-oxo-4H-chromen-8-yl)-1-methylpiperidin-3-yl ethyl carbonate] | 2% | 646.8 ± 219.4 ng · h/mL or ng · h/G | 405.4 ± 215.6 ng · h/mL or ng · h/G | 3.8 ± 0.6 h | 0.25 h | – |
| CCNC(=O)O[C@@H]1CN(C)CC[C@@H]1c1c(O)cc(O)c2c(=O)cc(-c3ccccc3Cl)oc12 [Compound 12, (3S, 4R)-4-(2-(2-chlorophenyl)-5,7-dihydroxy-4-oxo-4H-chromen-8-yl)-1-methylpiperidin-3-yl ethylcarbamate] | – | 281.4 ± 28.3 ng · h/mL or ng · h/G | 262.2 ± 27.8 ng · h/mL or ng · h/G | 2.1 ± 0.1 h | 0.42 ± 0.1 h | – |
| CCCCCCC(=O)O[C@@H]1CN(C)CC[C@@H]1c1c(O)cc(O)c2c(=O)cc(-c3ccccc3Cl)oc12 [Compound 31, (3S, 4R)-4-(2-(2-chlorophenyl)-5,7-dihydroxy-4-oxo-4H-chromen-8-yl)-1-methylpiperidin-3-yl heptanoate] | not detected | – | – | – | – | – |
| CNC(=O)O[C@@H]1CN(C)CC[C@@H]1c1c(O)cc(O)c2c(=O)cc(-c3ccccc3Cl)oc12 [Compound 13, (3S, 4R)-4-(2-(2-chlorophenyl)-5,7-dihydroxy-4-oxo-4H-chromen-8-yl)-1-methylpiperidin-3-yl methylcarbamate] | – | 620.2 ± 147.7 ng · h/mL or ng · h/G | 594.7 ± 143.7 ng · h/mL or ng · h/G | 2 ± 0.8 h | 0.4 ± 0.1 h | – |
| CN1CC[C@H](c2c(O)cc(O)c3c(=O)cc(-c4ccccc4Cl)oc23)[C@H](O)C1.Cl [Alvocidib•HCl, 2-(2-chlorophenyl)-5,7-dihydroxy-8-[(3S,4R)-3-hydroxy-1-methylpiperidin-4-yl]-4H-chromen-4-one hydrochloride, reference compound] | – | – | – | – | – | AUC0→∞, analyte: Alvocidib [2, 3]: 10,933.3 ± 4498.0 ng · h/mL or ng · h/G and 10,603.8 ± 1968.4 ng · h/mL or ng · h/G; AUCLast, analyte: Alvocidib [2, 3]: 7275.2 ± 2572.2 ng · h/mL or ng · h/G and 9952.7 ± 1769.5 ng · h/mL or ng · h/G |
| CCCCC(=O)O[C@@H]1CN(C)CC[C@@H]1c1c(O)cc(O)c2c(=O)cc(-c3ccccc3Cl)oc12 [Compound 32, (3S, 4R)-4-(2-(2-chlorophenyl)-5,7-dihydroxy-4-oxo-4H-chromen-8-yl)-1-methylpiperidin-3-yl pentanoate] | not detected | – | – | – | – | – |
| CN1CC[C@H](c2c(O)cc(O)c3c(=O)cc(-c4ccccc4Cl)oc23)[C@H](OC(=O)CN)C1 [Compound 28, (3S, 4R)-4-(2-(2-chlorophenyl)-5,7-dihydroxy-4-oxo-4H-chromen-8-yl)-1-methylpiperidin-3-yl glycinate] | not detected | – | – | – | – | – |

From patent US11279694B2, “Alvocidib prodrugs and their use as protein kinase inhibitors” (Sumitomo Dainippon Pharma Oncology, Inc., priority 2016, dated 2022)
